From patent US12076332B2, “Treatment of lysosomal storage disorders” (The Regents of the University of California, priority 2018, dated 2024)
“Also recorded” adds a separate entry of the source.

Assays:
MPS-IIIA mice [1] = details: mouse, in vivo, sc, 1 mg/kg/day
WT mice [2] = details: daily s.c. injection for 4.5 months
MPS-IIIA mice [3] = details: MPS-IIIA mouse brain, daily s.c. injection for 4.5 months, 9 months of age
From the text: Panel B) TEM analysis of synaptic vesicles number. […] The arrows indicate the synaptic cleft. ***p<0.0001 vs WT+Saline; ###p<0.0001 vs MPS-IIIA+saline, One-way ANOVA analysis with Bonferroni's multiple comparison test.

WT mice [4] = experiment: Anti-LC3 immunofluorescence on brain sections of WT mice; assay type: in vivo, mouse; details: CLR01-treated WT mice
From the text: (§1) FIG. 9. Panels A and B, show anti-LC3 immunofluorescence on brain sagittal sections from the four experimental groups of mice. The number of LC3-positive dots (either total or large dots) were quantified in 15 different fields from the cortical regions for each group. Three mice for each experimental group. […] Panel C) Immunofluorescence analysis of colocalization in MPS-IIIA mice brain sagittal sections between LC3 (green) and Lamp1 (red), LC3 (green) and Neurofilament (red). […] Images from cerebral cortex shown.
(§2) Medial sagittal sections of frozen brain tissue were cut on a cryostat at either 12 or 40 μm of thickness, permeabilized (PBS, 0.2% Tween[…]20, and 10% fetal bovine serum), and stained with appropriate primary and secondary antibodies overnight at […] Sections were analyzed by Confocal microscope Zeiss LSM 710 using either 63× or 40× objectives. Stained sections were mounted with Vectashield (Vector Laboratories, CA, USA).
(§3) To evaluate whether the normalization of the lysosomal compartment mediated by amyloid deposition inhibition was also associated to a functional recovery of lysosomes, the ALP was analyzed in MPS-IIIA mouse brain upon CLR01 treatment. […]

MPS-IIIA mice [5] = experiment: Thioflavin S staining of amyloid deposits in brain sections; assay type: in vivo, mouse
From the text: CLR01 was produced in the facility of Professor Gal Bitan (Associate Professor of Neurology, Department of Neurology, University of California, UCLA). […] […] CLR01 dosage has been chosen on the basis of safety and pharmacological characterization of CLR01 in mice (Attar et al. (2014) BMC Parmacol. & Toxicol 15: 23).
After euthanization, mouse brain was collected from each experimental group and perfused with phosphate-buffered saline (PBS pH 7,4) to completely clear blood from tissue. The brains were divided in two equal parts: half of each was frozen in dry ice and used for biochemical analysis. The other halves were fixed in 4% (w/v) paraformaldehyde in PBS and embedded in Optimal cutting temperature compound (OCT compound) or paraffin.
For thioflavin S histochemistry were used cryosections (12 μm), then sections were incubated in 0.1% thioflavin S for 10 min. Slides were immersed to 80% ethanol solution for 5 min, and mounted using FLUORSAVE™ reagent. Positive staining was observed using a Leica DM5500 scan.
The inventors therefore tested whether CLR01 (FIG. 4, panel A), was effective in targeting and destroying amyloid aggregation in MPS IIIA mice. […] Both treatments ended at 7 months of age, when the neuropathological phenotype becomes evident in MPS-IIIA mice (Lau et al. (2008) Behav. Brain Res. 191: 130-136; Sambri et al. (2016) EMBO Mol. Med. e201606965; Sorrentino et al. (2013) EMBO Mol. Med. 5: 675-690; Wilkinson et al. (2012) PloS one, 7: e35787). The two different treatment regimens allowed evaluation of the potential therapeutic effect of CLR01 resulting from either prevention or disassembly of amyloid aggregation.
The potential therapeutic efficacy of CLR01 in MPS-IIIA was further tested by treating MPS-IIIA mice at 4.5 months of age (before massive amyloid aggregation takes place) with daily sub-cutaneous injection of CLR01 over a period of 4.5 months.

WT mice [6] = experiment: Lysosomal autophagic axis in WT mice; assay type: in vivo, mouse; details: WT mice upon treatment
From the text: Therefore, the present data support a model in which progressive amyloid build-up into lysosomes impairs autophagic flux. Mechanisms underlying such effect involve the negative impact of amyloids on autophagosome clearance through the prevention of lysosome encountering. […] This might be a consequence of the relief of the autophagy block and/or might be a result of a more specific effect of CLR01 on lysosomal-mediated signaling pathways inducing ALP, signaling that may be impaired by amyloid deposition in MPS-IIIA.

MPS-IIIA mice [7] = experiment: Western blot of LC3-II and p62 on brain lysates; assay type: in vivo, mouse
[8] = tested on: mouse models of synucleinopathies and Alzheimer's disease; details: cited from earlier work
MPS-IIIA mice [9] = experiment: Contextual fear conditioning test; assay type: in vivo, mouse; details: daily s.c. injection for 4.5 months, 9 months of age
From the text: FIG. 7. […] Panel B) TEM analysis of synaptic vesicles number. […] Panel C) Contextual fear condition task.

MPS-IIIA mice [10] = experiment: GFAP and IBA1 staining of neuro-inflammation in brain; assay type: in vivo, mouse
MPS-IIIA mice [11] = experiment: Anti-LC3 immunofluorescence on brain sections; assay type: in vivo, mouse
From the text: FIG. 9. Panels A and B, show anti-LC3 immunofluorescence on brain sagittal sections from the four experimental groups of mice. The number of LC3-positive dots (either total or large dots) were quantified in 15 different fields from the cortical regions for each group. Three mice for each experimental group. […] Panel C) Immunofluorescence analysis of colocalization in MPS-IIIA mice brain sagittal sections between LC3 (green) and Lamp1 (red), LC3 (green) and Neurofilament (red). […] Panel E) Immunohistochemistry analysis of anti-Ubiquitin K63 signal on brain sagittal sections derived from the four experimental groups of mice. Images from cerebral cortex shown. UbK63 immuno-reactivity quantified in 10 different fields from the cortical regions from each group.
as §2
In healthy neurons autophagosomes are efficiently cleared upon axonal retrograde transport and lysosomal encountering and, therefore, are rarely found in neurites or cell bodies unless lysosomal-dependent autophagosome clearance is disrupted (Boland et al. (2008) J. Neurosci. 28: 6926-6937; Maday et al. (2012) J. Cell Biol. 196: 407-417; Lie & Nixon (2019) Neurobiol. Dis. 122: 94-105).

[12] = systemic administration; cited from earlier work
[13] = systemic administration, mice; cited from earlier work
MPS-IIIA mice [14] = experiment: IHC anti-UbK63 on brain sections; assay type: in vivo, mouse; details: CLR01-treated MPS-IIIA brain vs control MPS-IIIA brain
From the text: as §1
For paraffin embedding, mice brain were fixed in 4% paraformaldehyde (PFA) overnight at 4° C., then mice brain were dehydrated in a graded series of ethanol, cleared with xylene, and infiltrated with paraffin. Paraffin-embedded blocks were cut on a microtome in 6-μm sagittal sections. Immunohistochemistry experiments were […] performed using the Universal Vectastain Elite ABC HRP Kit (PK6200, Vector Laboratories). For all immunostainings were used sagittal sections, rinsed in PBS1×-Triton 0.1% and treated with 1% H2O2 for 30 min to quench endogenous peroxidase activity. […]
as §3

MPS-IIIA mice [15] = experiment: IHC anti-LAMP1 on brain sections; assay type: in vivo, mouse; details: daily s.c. injection for 4.5 months
Method: (§4) FIG. 8. […] Images from cerebral cortex shown. […] Three mice for each experiment group.
(§5) For paraffin embedding, mice brain were fixed in 4% paraformaldehyde (PFA) overnight at 4° C., then mice brain were dehydrated in a graded series of ethanol, cleared with xylene, and infiltrated with paraffin. Paraffin-embedded blocks were cut on a microtome in 6-μm sagittal sections. Immunohistochemistry experiments were […] performed using the Universal Vectastain Elite ABC HRP Kit (PK6200, Vector Laboratories). For all immunostainings were used sagittal sections, rinsed in PBS1×-Triton 0.1% and treated with 1% H2O2 for 30 min to quench endogenous peroxidase activity. At this point the sections were exposed at PBS or at Proteinase K digestion (50 μg/ml) for 2 minutes at 37° C. to detect protease resistant structures. After this point the sections were blocked for 1 hour in PBS1×-TritonX-100 0.1%-2% Horse Serum and then incubated with specific antibodies overnight at […], followed by incubation in biotinylated universal antibody (Vector Laboratories) for 90 minutes at room temperature and in ABC reagent (Vector Laboratories) for 45 minutes at room temperature. Sections were dehydrated and then mounted with Leica CV ULTRA (Leica micro systems). Visualization was performed using 3,3-diaminobenzidine tetrahydrochloride (DAB Vector Laboratories). […]

MPS-IIIA mice [16] = experiment: TEM analysis of number/size of lysosomes; assay type: in vivo, mouse
From the text: as §4

WT mice [17] = experiment: IHC anti-LAMP1 on brain sections of WT mice; assay type: in vivo, mouse; details: daily s.c. injection for 4.5 months
Method: as §4, §5

WT mice [18] = details: daily s.c. injection for 4.5 months; remark: listed apart in the source
From the text: Panel C) IHC anti-Lamp-on brain sagittal sections derived from the four experimental groups of mice (WT saline-injected, WT CLR01-injected, MPS-IIIA-saline injected and MPS-IIIA CLR01-injected). Images from cerebral cortex shown. Lamp 1 immuno-reactivity quantified in 10 different fields from the cortical regions for each group. Three mice for each experimental group. ***p<0.001 vs WT; ###P<0.001 vs MPS-IIIA+saline, One-way ANOVA analysis with Bonferroni's multiple comparison test. Panels D and E) TEM analysis to quantify the number/size of lysosomes in the four experimental group of mice. Three mice for each experiment group. Representative TEM images were shown on the left panel. *, **, *** p<0.05, 0.01, 0.001 vs WT; ##, ###, P<0.01, 0.001 vs MPS-IIIA+saline, One-way ANOVA analysis with Bonferroni's multiple comparison test.

[19] = CLR01-treated MPS-IIIA brain vs WT
[20] = MPS-IIIA brain lysates, CLR01 vs saline
[21] = MPS-IIIA brain, daily s.c. injection for 4.5 months

O=P(O)(O)Oc1c2c(c(OP(=O)(O)O)c3c1C1CC3c3cc4c(cc31)C1CC4c3ccccc31)C1CC2c2cc3c(cc21)C1CC3c2ccccc21 [CLR01]
build-up of amyloid components (α-Synuclein, PrP, Aβ1-42, Tau), proteinase K-resistant (MPS-IIIA mice [1]): efficient inhibition of the build-up of several amyloid components
inflammatory response by GFAP and Iba1 IHC (WT mice [2]): did not elicit inflammatory response
synaptic abnormalities (synaptic vesicles/synaptic cleft length ratio, TEM) (MPS-IIIA mice [3]): able to rescue synaptic abnormalities
LC3 staining (WT mice [4]): a significant change in LC3 staining was observed
thioflavin-positive inclusions / amyloid deposition in brain (MPS-IIIA mice [5]; MPS-IIIA mice, daily s.c. injection for 4.5 months from 4.5 months of age, analysed at 9 months): reduction of amyloid deposition; also recorded: almost complete absence of thioflavin-positive inclusions
amyloid proteins by Thioflavin S staining (MPS-IIIA mice [5]; asymptomatic MPS-IIIA mice, 1 mg/kg/day s.c. osmotic pump, 2 months from 5 months of age, analysed at 7 months): complete disappearance of amyloid proteins
amyloid deposits by Thioflavin S staining in different brain regions (MPS-IIIA mice [5]; symptomatic MPS-IIIA mice, 1 mg/kg/day s.c. osmotic pump, 1 month from 6 months of age, analysed at 7 months): partial removal of amyloid deposits
lysosomal autophagic axis (WT mice [6]): no significant change in lysosomal autophagic axis
LC3-II levels compared to WT (MPS-IIIA mice [7]; [19]): remained significantly higher than WT
LC3-II protein level (Western blot, normalized to β-actin) (MPS-IIIA mice [7]; [20]): reduction; also recorded: damped down
p62 protein level (Western blot, normalized to β-actin) (MPS-IIIA mice [7]; [20]): reduction; also recorded: damped down
protection against protein aggregation and neurodegeneration [8]: very effective in protecting against protein aggregation and neurodegeneration
memory deficit (freezing time, contextual fear conditioning) (MPS-IIIA mice [9]): rescue of memory deficits; also recorded: fully rescued
neuroinflammatory markers GFAP and IBA1, immunofluorescence (MPS-IIIA mice [10]; 2 months of treatment, at 7 months of age): strong reduction of inflammation
neuro-inflammation by GFAP and Iba1 IHC, cortex and striatum (MPS-IIIA mice [10]; daily s.c. injection for 4.5 months, 9 months of age): reduction in both inflammatory markers; also recorded: strongly reduced neuro-inflammation
number of LC3 dots (both large and normal sized) compared to WT brain (MPS-IIIA mice [11]; [19]): remained significantly higher compared to WT brain
autophagic flux / autophagy block (MPS-IIIA mice [11]; MPS-IIIA brain, conclusion from LC3 dots): autophagic flux was re-activated; also recorded: able to relief autophagy block
large LC3 dots (>0.8 μm^2) (MPS-IIIA mice [11]; MPS-IIIA brain, cortical regions, daily s.c. injection for 4.5 months): significantly reduced large LC3 dots
brain targeting / blood-brain barrier crossing [12]: cross the blood-brain barrier
safety margin [13]: high safety margin
UbK63 IHC signal, cerebral cortex (MPS-IIIA mice [14]): significant signal reduction
LAMP1-positive immunostaining, cerebral cortex (MPS-IIIA mice [15]): markedly reduced LAMP1-positive immunostaining
total number of lysosomes (MPS-IIIA mice [16]; CLR01-treated MPS-IIIA brain vs control MPS-IIIA mice): remained significantly higher than control MPS-IIIA mice
average lysosomal size (EM) (MPS-IIIA mice [16]; [21]): significant reduction in the average lysosomal size
number of abnormal-sized lysosomes (>800 nm) (MPS-IIIA mice [16]; [21]): decreased number of abnormal-sized lysosomes
LAMP1 compartment volume (WT mice [17]): did not modify LAMP1 compartment volume
lysosome size/number (WT mice [18]): did not affect lysosome size/number
